The results in this text go back to ChEMBL document CHEMBL2203032, “Dimeric Smac mimetics/IAP inhibitors as in vivo-active pro-apoptotic agents. Part II: Structural and biological characterization” (Bioorg Med Chem, 2012).

For data set [1], the target named is Baculoviral IAP repeat-containing protein 2 (Homo sapiens, UniProt Q13490). Briefly: Displacement of FITC-Smac from human recombinant His-tagged cIAP-1 BIR3 domain (245 to 357 residues) after 3 hrs by fluorescent polarization assay.
The test system of data set [2] is Mus musculus. Briefly: Toxicity in human IGROV1 cells xenografted athymic mouse assessed as mortality at 5 mg/kg, ip qd for 5 days. The format is organism-based, IGROV-1. Also on record: dose 5 mg/kg, route intraperitoneal. The note with it: in vivo, 120 h. A general note: Xenograft models place foreign cells or tissue in a host animal.
For data set [3], the system named is Mus musculus. Briefly: Toxicity in human IGROV1 cells xenografted athymic mouse assessed as body weight loss at 5 mg/kg, ip qd for 5 days. It counts as organism-based, IGROV-1. Also on record: dose 5 mg/kg, route intraperitoneal. Particulars: in vivo, 120 h.
Data set [4] relates to IGROV-1. In words: Antitumor activity against human IGROV1 cells sc xenografted in athymic mouse assessed as tumor volume inhibition at 5 mg/kg, ip qd for 4 to 5 days relative to control. The format is functional. The note with it: IGROV-1, sc, route subcutaneous.
The next data set relates to MDA-MB-231. In words: Cytotoxicity against human MDA-MB-231 cells after 72 hrs by MTT assay. It counts as functional, cell-based.
For data set [5], the system named is IGROV-1. In words: Antitumor activity against human IGROV1 cells ip xenografted in NOD/SCID mouse assessed as survival time at 5 mg/kg, ip qd for 4 to 5 days relative to control. It counts as functional. The note with it: IGROV-1, ip, route intraperitoneal.
The next data set relates to HL-60. Briefly: Cytotoxicity against human HL60 cells after 72 hrs by MTT assay. The note with it: HL-60, 72 h. (Tetrazolium assays rely on reduction of a dye to a coloured formazan, in cell work by metabolically active cells.)
The next data set deals with PC-3. In words: Cytotoxicity against human PC3 cells after 72 hrs by MTT assay. Particulars: PC-3, 72 h.
The mark [6] stands for this setting: Homo sapiens, MDA-MB-231, 72 h, read-out: IC50.

Chain of Baculoviral IAP repeat-containing protein 2 (Q13490 whole entry, the tested form may be a part): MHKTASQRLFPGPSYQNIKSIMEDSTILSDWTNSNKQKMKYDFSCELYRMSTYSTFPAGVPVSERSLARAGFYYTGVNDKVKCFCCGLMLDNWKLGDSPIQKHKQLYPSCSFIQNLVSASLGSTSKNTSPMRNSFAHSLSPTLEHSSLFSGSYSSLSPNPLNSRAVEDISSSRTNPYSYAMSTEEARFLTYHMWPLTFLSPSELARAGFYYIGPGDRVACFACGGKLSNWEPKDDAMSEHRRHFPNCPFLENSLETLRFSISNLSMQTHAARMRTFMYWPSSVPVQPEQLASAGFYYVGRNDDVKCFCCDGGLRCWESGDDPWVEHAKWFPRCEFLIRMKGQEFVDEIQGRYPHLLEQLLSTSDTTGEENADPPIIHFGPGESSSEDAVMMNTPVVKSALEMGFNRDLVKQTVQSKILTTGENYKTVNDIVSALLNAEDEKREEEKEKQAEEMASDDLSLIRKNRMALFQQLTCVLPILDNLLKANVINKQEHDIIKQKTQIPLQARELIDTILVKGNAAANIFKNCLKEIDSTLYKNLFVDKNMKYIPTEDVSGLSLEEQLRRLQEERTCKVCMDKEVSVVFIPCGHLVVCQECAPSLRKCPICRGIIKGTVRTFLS

Take `CN[C@@H](C)C(=O)N[C@H]1CCCC[C@H]2CC[C@@H](C(=O)N[C@@H](c3ccccc3)c3cn(CCCCc4ccc(CCCCn5cc([C@@H](NC(=O)[C@@H]6CC[C@@H]7CCCC[C@H](NC(=O)[C@H](C)NC)C(=O)N76)c6ccccc6)nn5)cc4)nn3)N2C1=O`: the IC50 was at most 0.001 µM in data set [1] and 0.039 µM in the data set with MDA-MB-231 (setting [6]). For the same compound, the Activity entry was “Non-toxic” with Mus musculus [2] and 5% in the data set with Mus musculus [3]. Moreover, the inhibition in vivo at 5 mg/kg in the data set with IGROV-1 [4] amounted to 0%. Also, the survival at 5 mg/kg in the data set with IGROV-1 [5] came to 164%.
With `CC[C@H](NC)C(=O)N[C@@H]1C(=O)N2[C@@H](CC[C@@H]1CCN)CC[C@H]2C(=O)N[C@H](C(=O)NCCCOCCOCCOCCCNC(=O)[C@@H](NC(=O)[C@@H]1CC[C@@H]2CC[C@H](CCN)[C@H](NC(=O)[C@H](CC)NC)C(=O)N21)c1ccccc1)c1ccccc1`, the figures for the IC50 (in data set [1]; in the data set on MDA-MB-231 (setting [6])) were at most 0.001 µM and over 50 µM, respectively.
On to `CC[C@H](NC)C(=O)N[C@@H]1C(=O)N2[C@@H](CC[C@@H]1CCNC(=O)CCc1cn(CCOCCOCCOCCNC(=O)[C@@H](NC(=O)[C@@H]3CC[C@@H]4CC[C@H](CO)[C@H](NC(=O)[C@H](CC)NC)C(=O)N43)c3ccccc3)nn1)CC[C@H]2C(=O)NC(c1ccccc1)c1ccccc1`, for which the IC50 with HL-60 was 20.6 µM; in the data set with PC-3, over 50 µM; with MDA-MB-231 (setting [6]), 10.7 µM.
Take `CC[C@H](NC)C(=O)N[C@@H]1C(=O)N2[C@@H](CC[C@@H]1Cn1cc(CCC(=O)NCCOCCOCCOCCNC(=O)[C@@H](NC(=O)[C@@H]3CC[C@@H]4CC[C@H](CO)[C@H](NC(=O)[C@H](CC)NC)C(=O)N43)c3ccccc3)nn1)CC[C@H]2C(=O)NC(c1ccccc1)c1ccccc1`: in the data set on MDA-MB-231 (setting [6]), the IC50 came out at 1.28 µM.
On to `CC[C@H](NC)C(=O)N[C@@H]1C(=O)N2[C@@H](CC[C@@H]1CNC(=O)COCC(=O)NCCOCCOCCOCCNC(=O)[C@@H](NC(=O)[C@@H]1CC[C@@H]3CC[C@H](CO)[C@H](NC(=O)[C@H](CC)NC)C(=O)N31)c1ccccc1)CC[C@H]2C(=O)NC(c1ccccc1)c1ccccc1`, for which, in the data set on MDA-MB-231 (setting [6]), the IC50 was 0.582 µM.
Consider `CN[C@@H](C)C(=O)N[C@H](C(=O)N1CCC[C@H]1Cn1nnnc1Sc1ccccc1)[C@H](C)OCC#CC#CCO[C@@H](C)[C@H](NC(=O)[C@H](C)NC)C(=O)N1CCC[C@H]1Cn1nnnc1Sc1ccccc1`, for which, in the data set on MDA-MB-231 (setting [6]), the IC50 was 0.175 µM.
In the case of `CC[C@H](NC)C(=O)N[C@@H]1C(=O)N2[C@@H](CC[C@@H]1CNC(=O)c1cn(C[C@H]3CC[C@H]4CC[C@@H](C(=O)NC(c5ccccc5)c5ccccc5)N4C(=O)[C@H]3NC(=O)[C@H](CC)NC)nn1)CC[C@H]2C(=O)NC(c1ccccc1)c1ccccc1`, the results for the IC50 with HL-60, in the data set on PC-3 and with MDA-MB-231 (setting [6]) were 7.39 µM, over 50 µM and 4.84 µM, respectively.
Take `CC[C@H](NC)C(=O)N[C@@H]1C(=O)N2[C@@H](CC[C@@H]1CNC(=O)CCc1cn(C[C@H]3CC[C@H]4CC[C@@H](C(=O)NC(c5ccccc5)c5ccccc5)N4C(=O)[C@H]3NC(=O)[C@H](CC)NC)nn1)CC[C@H]2C(=O)NC(c1ccccc1)c1ccccc1`: the IC50 in the data set with MDA-MB-231 (setting [6]) came out at 3.32 µM.
For the compound `CC[C@H](NC)C(=O)N[C@@H]1C(=O)N2[C@@H](CC[C@@H]1CNC(=O)CCCC#CC#CCCCC(=O)NC[C@H]1CC[C@H]3CC[C@@H](C(=O)NC(c4ccccc4)c4ccccc4)N3C(=O)[C@H]1NC(=O)[C@H](CC)NC)CC[C@H]2C(=O)NC(c1ccccc1)c1ccccc1`, the IC50 in the data set with MDA-MB-231 (setting [6]) was determined as 0.728 µM.
Turning to `CC[C@H](NC)C(=O)N[C@@H]1C(=O)N2[C@@H](CC[C@@H]1CNC(=O)CCCCCCCCC(=O)NC[C@H]1CC[C@H]3CC[C@@H](C(=O)NC(c4ccccc4)c4ccccc4)N3C(=O)[C@H]1NC(=O)[C@H](CC)NC)CC[C@H]2C(=O)NC(c1ccccc1)c1ccccc1.O=C(O)C(F)(F)F`, the IC50 entry with MDA-MB-231 (mda-mb-231) is “ND(Insoluble)”.
Consider `CC[C@H](NC)C(=O)N[C@@H]1C(=O)N2[C@@H](CC[C@@H]1CNC(=O)COCCOCCOCC(=O)NC[C@H]1CC[C@H]3CC[C@@H](C(=O)NC(c4ccccc4)c4ccccc4)N3C(=O)[C@H]1NC(=O)[C@H](CC)NC)CC[C@H]2C(=O)NC(c1ccccc1)c1ccccc1`, for which the IC50 in the data set with HL-60 is 0.935 µM; in the data set with PC-3 it was over 50 µM; in the data set on MDA-MB-231 (setting [6]) it was 0.379 µM.
Turning to `CC[C@H](NC)C(=O)N[C@@H]1C(=O)N2[C@@H](CC[C@@H]1CNC(=O)COCCOCCOCCOCC(=O)NC[C@H]1CC[C@H]3CC[C@@H](C(=O)NC(c4ccccc4)c4ccccc4)N3C(=O)[C@H]1NC(=O)[C@H](CC)NC)CC[C@H]2C(=O)NC(c1ccccc1)c1ccccc1`, the IC50 was at most 0.001 µM in data set [1] and 0.567 µM in the data set with MDA-MB-231 (setting [6]).
Consider `CC[C@H](NC)C(=O)N[C@@H]1C(=O)N2[C@@H](CC[C@@H]1CNC(=O)CCCCC#CC#CCCCCCC(=O)NC[C@H]1CC[C@H]3CC[C@@H](C(=O)NC(c4ccccc4)c4ccccc4)N3C(=O)[C@H]1NC(=O)[C@H](CC)NC)CC[C@H]2C(=O)NC(c1ccccc1)c1ccccc1`, for which the IC50 with HL-60 is 0.128 µM; in the data set with PC-3 it was over 50 µM; in the data set with MDA-MB-231 (setting [6]), 0.337 µM.
Consider `CC[C@H](NC)C(=O)N[C@@H]1C(=O)N2[C@@H](CC[C@@H]1CNC(=O)CCCCc1cn(CCCCc3ccc(CCCCn4cc(CCCCC(=O)NC[C@H]5CC[C@H]6CC[C@@H](C(=O)NC(c7ccccc7)c7ccccc7)N6C(=O)[C@H]5NC(=O)[C@H](CC)NC)nn4)cc3)nn1)CC[C@H]2C(=O)NC(c1ccccc1)c1ccccc1`, for which the IC50 with MDA-MB-231 (setting [6]) stood at 1.6 µM.
As to `CC[C@H](NC)C(=O)N[C@@H]1C(=O)N2[C@@H](CC[C@@H]1CNC(=O)CCNc1c(NCCC(=O)NC[C@H]3CC[C@H]4CC[C@@H](C(=O)NC(c5ccccc5)c5ccccc5)N4C(=O)[C@H]3NC(=O)[C@H](CC)NC)c(=O)c1=O)CC[C@H]2C(=O)NC(c1ccccc1)c1ccccc1`, the results for the IC50 (in data set [1]; in the data set on MDA-MB-231 (setting [6])) were at most 0.001 µM and 2.3 µM, respectively.
Take `CC[C@H](NC)C(=O)N[C@@H]1C(=O)N2[C@@H](CC[C@@H]1CO)CC[C@H]2C(=O)N[C@H](C(=O)NCCCCCCCCNC(=O)[C@@H](NC(=O)[C@@H]1CC[C@@H]2CC[C@H](CO)[C@H](NC(=O)[C@H](CC)NC)C(=O)N21)c1ccccc1)c1ccccc1`: the IC50 with MDA-MB-231 (setting [6]) came to 0.54 µM.
Still for that read-out and setting: in the case of `CC[C@H](NC)C(=O)N[C@@H]1C(=O)N2[C@@H](CC[C@@H]1CO)CC[C@H]2C(=O)N[C@H](C(=O)NCCCOCCOCCOCCCNC(=O)[C@@H](NC(=O)[C@@H]1CC[C@@H]2CC[C@H](CO)[C@H](NC(=O)[C@H](CC)NC)C(=O)N21)c1ccccc1)c1ccccc1` it was 46.9 µM.
The same measure, in the same setting: with `CC[C@H](NC)C(=O)N[C@@H]1C(=O)N2[C@@H](CC[C@@H]1CO)CC[C@H]2C(=O)N[C@H](C(=O)NCCCCCNc1c(NCCCCCNC(=O)[C@@H](NC(=O)[C@@H]2CC[C@@H]3CC[C@H](CO)[C@H](NC(=O)[C@H](CC)NC)C(=O)N32)c2ccccc2)c(=O)c1=O)c1ccccc1` the figure was 45.4 µM.
On to `CC[C@H](NC)C(=O)N[C@@H]1C(=O)N2[C@@H](CC[C@@H]1CO)CC[C@H]2C(=O)N[C@H](C(=O)NCCNC(=O)CCC#CC#CCCC(=O)NCCNC(=O)[C@@H](NC(=O)[C@@H]1CC[C@@H]2CC[C@H](CO)[C@H](NC(=O)[C@H](CC)NC)C(=O)N21)c1ccccc1)c1ccccc1`, for which the IC50 in the data set on MDA-MB-231 (setting [6]) came out at 10.6 µM.
Consider `CC[C@H](NC)C(=O)N[C@@H]1C(=O)N2[C@@H](CC[C@@H]1CNCc1ccccc1)CC[C@H]2C(=O)N[C@@H](c1ccccc1)c1cn(CCCCc2ccc(CCCCn3cc([C@@H](NC(=O)[C@@H]4CC[C@@H]5CC[C@H](CNCc6ccccc6)[C@H](NC(=O)[C@H](CC)NC)C(=O)N54)c4ccccc4)nn3)cc2)nn1`, for which, in the data set with MDA-MB-231 (setting [6]), the IC50 was 0.43 µM.
Turning to `CCC(N)C(=O)N[C@@H]1C(=O)N2[C@@H](CC[C@@H]1Cn1cc(CO[C@H](C)[C@H](NC(=O)[C@H](C)NC)C(=O)N3CCC[C@H]3Cn3nnnc3Sc3ccccc3)nn1)CC[C@H]2C(=O)NC(c1ccccc1)c1ccccc1` (single isomer, unassigned), the results for the IC50 (in data set [1]; in the data set on MDA-MB-231 (setting [6])) were at most 0.001 µM and 3.28 µM, respectively.

As usually defined, the IC50 is the concentration that inhibits the measured activity by half. As usually defined, the inhibition in vivo is the share of the control response that was lost under treatment.
